Results as given in the METLIN SMRT retention time set (Domingo-Almenara et al. 2019).

Assay: gradient 5% acetonitrile 3 min, to 50% in 2 min, to 85% in 15 min, held 3 min, 100 µL/min
Conditions: column: Zorbax Extend-C18 2.1 x 50 mm; eluents: water / acetonitrile, 0.1% formic acid
Procedure, shortened: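 Using water and acetonitrile that each contained 0.1% formic acid, mixtures of ~100 pure standards were separated at 100 μL/min on a Zorbax Extend-C18 column (2.1 × 50 mm, 1.8 μm). The HPLC fed a quadrupole time-of-flight mass spectrometer working in positive and negative ionization mode, with dead and dwell volumes of 40 μL and 900 μL. Data were acquired over 3 months. Retention time was read from computationally picked adduct peaks after manual inspection of each.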

| Compound | RP-LC retention time |
| --- | --- |
| CCOC(=O)c1nc(NCCCOC)c2c(-c3ccc(F)cc3)noc2n1 | 944 s |
| O=C(Nc1ccc(-c2nc(-c3ccc(F)cc3)no2)cc1)c1ccco1 | 1100 s |
| COc1ccc(OC)c(S(=O)(=O)N2CCC(c3cc(-c4cccc(C)c4)n[nH]3)CC2)c1 | 960 s |
| COc1ccc(-n2c(=O)c(C(=O)Nc3ccc4c(c3)OCO4)c(O)c3cccnc32)cc1 | 1200 s |
| CC1(C(=O)NC2CCCCCC2)CN(S(C)(=O)=O)CC(=O)N1Cc1ccc(Cl)cc1 (stereo not given) | 946 s |
| Cc1ccc(C)c(S(=O)(=O)N2CCc3nc(-c4ccccc4)ncc3C2)c1 | 1170 s |
| CCOc1ccccc1N1CCN(S(=O)(=O)c2nn(C)cc2C(=O)NCC2CC2)CC1 | 973 s |
| Cc1nn(CC(=O)NC2CC2)c(=O)c2c(-n3cccc3)n(-c3cccc(F)c3)nc12 | 828 s |
| Cc1[nH]c(C(=O)N2CCCC(C(=O)NC(C)c3ccccc3)C2)c(C)c1C(=O)OC(C)C (stereo not given) | 896 s |
| COc1ccccc1CNS(=O)(=O)c1ccc2c(c1)C(=O)N(C)c1ncccc1O2 | 907 s |
| Nc1nc(SCc2ccccc2Cl)c2[nH]cnc2n1 | 680 s |
| COc1cc(-c2nnc(-c3cccc(S(=O)(=O)N4CCOCC4)c3)o2)cc(OC)c1OC | 852 s |
| Cc1ccc(-c2noc(C3CCCN3S(=O)(=O)c3ccc(Br)cc3)n2)cc1 (stereo not given) | 1230 s |
| Cc1ccccc1NC(=O)N(C)CCc1noc(COc2ccccc2)n1 | 869 s |
| COC(=O)c1cc(C)nc2c1c(=O)n(Cc1ccccc1F)c(=O)n2Cc1ccco1 | 1070 s |
| O=C(Nc1ccccc1)C1CCCN(c2cnc3nccnc3c2)C1 (stereo not given) | 703 s |
| CN(C(=O)Cn1c(=O)oc2ccccc21)C1CCc2nn(C)c(=O)n2CC1 (stereo not given) | 633 s |
| CCCCn1cc(S(=O)(=O)Nc2ccc(OC)cc2)c2cccnc21 | 896 s |
| O=C(NC1CCN(c2ccc(N3CCCCCC3)nn2)CC1)c1ccc(F)c(F)c1 | 682 s |
| COCC(C)NC(=O)CN1c2ccc(F)cc2-c2ccccc2S1(=O)=O (stereo not given) | 785 s |
| COC(=O)c1c(NC(=O)c2cc3ccccc3c(=O)o2)sc2c1CCCC2 | 748 s |
| COCCOC1CCC12CCN(C(=O)c1cc(C)oc1C)CC2 (stereo not given) | 811 s |
| Cc1sc(-c2noc(C(C)C)n2)cc1S(=O)(=O)N1CCC(C(=O)NC2CCCCC2)CC1 | 1090 s |

| Compound | RP-LC retention time |
| --- | --- |
| Cc1nnc(-c2cc(S(=O)(=O)Nc3ccc(S(N)(=O)=O)cc3)c(C)n2C)o1 | 649 s |
| O=C(Nc1nnc(C2CC(=O)N(c3ccccc3)C2)o1)c1ccc(Br)cc1 (stereo not given) | 766 s |
| O=C(Nc1cnc(N2CCCC2)nc1)c1ccc(F)c(Cl)c1 | 804 s |
| Cc1nn(-c2ccc(-c3ccccc3)nn2)c(C)c1S(=O)(=O)N1CCC(C)CC1 | 1160 s |
| CC1(C(=O)NCc2ccc(F)cc2)CCCN(C(=O)Nc2ccc(Br)cc2F)C1 (stereo not given) | 1030 s |
| CC(=O)N1CCc2cc(N3CC(C(=O)NCC(C)C)CC3=O)ccc21 (stereo not given) | 643 s |
| O=C(NCC(c1cccnc1)N1CCN(Cc2ccccc2)CC1)Nc1ccccc1Cl (stereo not given) | 554 s |
| CCCCNC(=O)C1CCN(c2cc(N3CCCCC3)ncn2)CC1 | 642 s |
| CCCN1C(=O)COc2cc(-c3noc(C(=O)NC(C)CC)n3)ccc21 (stereo not given) | 950 s |
| O=C(c1cc(S(=O)(=O)N2CCCC(C(=O)N3CCOCC3)C2)c[nH]1)N1CCCCCC1 (stereo not given) | 696 s |
| Cc1cc(=O)n(CC(=O)Nc2ccc(Br)cc2)c(N2CCC(C)CC2)n1 | 793 s |
| CCCc1noc(-c2cccnc2N2CCCN(Cc3ccccc3F)CC2)n1 | 701 s |
| N#Cc1nc(-c2ccc(COc3ccc(Cl)cc3)o2)oc1N1CCC(C(N)=O)CC1 | 806 s |
| COCCN1C(=O)c2ccccc2C(C(=O)NCCN2CCCCC2C)C1c1cccs1 (stereo not given) | 634 s |
| O=C(C1CCCN(c2nnc3ccc(C(F)(F)F)cn23)C1)N1CCCCC1 (stereo not given) | 670 s |
| CSc1ccccc1C(=O)N(Cc1ccsc1)CC(F)(F)F | 987 s |
| Cc1cccc(-c2noc(-c3nn(CC(=O)NCc4cccs4)c4ccccc34)n2)c1 | 1140 s |
| CCOc1ccc(-c2nc(-c3ccc4c(c3)oc(=O)n4C)no2)cc1OCC | 1110 s |
| O=C(Nc1nnc(C2=COCCO2)o1)C1CCN(S(=O)(=O)c2cccs2)CC1 | 643 s |
| CC1=CC(C)(C)N=C2SC(c3ccc(N)cc3)=NN12 | 635 s |
| CC(C)OC(=O)N1CCC(Oc2ncnc3c2cnn3-c2ccc(S(C)(=O)=O)cc2F)CC1 | 1060 s |
| CC1(c2cccc3ccccc23)OC(=O)c2ccccc21 (stereo not given) | 1030 s |
| CN1c2cc(Cl)ccc2C(=O)NC12CCN(C(=O)Nc1ccccc1)CC2 | 795 s |

| Compound | RP-LC retention time |
| --- | --- |
| c1ccc(-c2ccc(CNCc3ccc4c(c3)OCO4)o2)cc1 | 698 s |
| CN1CCC(N2CCN(S(=O)(=O)c3ccccc3C(F)(F)F)CC2)C1=O (stereo not given) | 594 s |
| Cc1cc(C)n(-c2ncnc3c2cnn3-c2ccc(F)cc2)n1 | 1420 s |
| CN(C)c1cccc(C(=O)N2CCC3(CC2)N=C(c2ccccc2)NO3)c1 | 717 s |
| Cc1cc(C)cc(NC(=O)Cn2ccc3ccc(-c4nnc(C)o4)cc32)c1 | 1300 s |
| COc1ccc(-c2cc(N3CCCC(C(=O)Nc4nccs4)C3)ncn2)cc1 (stereo not given) | 582 s |
| COc1ccc(NC(=O)Cn2c(=O)n(-c3ccccc3)c(=O)c3c2cc(C)n3C)cc1 | 766 s |
| O=C(NCCc1cccc(F)c1)C1CC(=O)N(c2n[nH]c3cccc(F)c23)C1 (stereo not given) | 720 s |
| Cc1cc(C)cc(NS(=O)(=O)c2c(C)sc(C)c2-c2cc(C)[nH]n2)c1 | 1100 s |
| CCc1cc(=O)n(CC(=O)Nc2cc(F)ccc2F)c(-c2ccccc2)n1 | 1180 s |
| CCOc1ccc(CNC(=O)Cc2cn(C)c3ncccc23)cc1 | 698 s |
| CCNc1nc(C)cc(N2CCN(C(=O)Nc3cc(Cl)ccc3OC)CC2)n1 | 709 s |
| CCOC(=O)c1sc(NC(=O)COc2ccc(Cl)cc2)nc1C | 970 s |
| CCCNC(=O)c1cn(-c2ncccc2-c2nc(-c3ccccc3)no2)cn1 | 823 s |
| COc1ccc(S(=O)(=O)N2CCC(c3ccncc3)CC2)cc1Cl | 667 s |
| COCc1nncn1C1CCN(S(=O)(=O)c2ccc(Cl)cc2C)CC1 | 770 s |
| Cc1nc(CCNC(=O)C2CCC2)no1 | 608 s |
| O=C(c1cncnc1)N1CCC(F)(F)C(COCC2CC2)C1 (stereo not given) | 683 s |
| CCS(=O)(=O)N1CCc2nc(-c3ccc(OC)cc3)ncc2C1 | 805 s |
| Cc1ccc(Oc2cccc(C(N)=O)c2)nn1 | 559 s |
| CCN1CCN(CCCNC(=O)c2cc(-c3ccc(C)c(C)c3)[nH]c2C)CC1 | 595 s |
| c1ccc(-c2nc3ccccn3c2Nc2ccc3c(c2)OCO3)cc1 | 677 s |
| CC(=O)c1cccc(NC(=O)c2cnc(-c3ccccc3)nc2-c2ccncc2)c1 | 800 s |

| Compound | RP-LC retention time |
| --- | --- |
| CCn1cc(CC(=O)NCc2ccc(F)cc2)c2cccnc21 | 708 s |
| O=S(=O)(c1cccn2c(SCc3ccccc3)nnc12)N1CCN(c2ccc(F)cc2)CC1 | 958 s |
| Cc1ccc(Cn2ccn3nc(-c4ccccc4)c(CO)c3c2=O)cc1 | 964 s |
| O=C(Cc1nnc(-c2cnccn2)o1)Nc1ccc(Cl)cc1Cl | 753 s |
| COc1ccc2c(c1)C1(CCN(C(=O)Cc3cccc(F)c3)C1)C(=O)N2C (stereo not given) | 788 s |
| Cc1cnc(CC2CCN(S(=O)(=O)c3ccccc3)C2)n1C(C)C (stereo not given) | 650 s |
| O=C(NCc1cccnc1)c1ccc2c(c1)NC(=O)C1CCCCN21 (stereo not given) | 585 s |
| CCn1cnc(S(=O)(=O)N2CCC(C(=O)NCc3ccccc3OC)CC2)c1 | 902 s |
| COc1ccc(-c2noc(C3(NC(=O)c4ccccc4OC)CCCCC3)n2)cc1 | 1210 s |
| CC1CCN(S(=O)(=O)c2cccn(CC(=O)N3CCCc4ccccc43)c2=O)CC1 | 910 s |
| CCN1c2ccccc2C(=O)NC12CCN(C(=O)c1ccccc1F)CC2 | 749 s |
| O=C(Cc1cccs1)N1CCCC1c1nc(-c2ccc(F)cc2F)no1 (stereo not given) | 935 s |
| Cc1noc(C)c1CCC(=O)N1CCC(c2nc(C3CC3)n[nH]2)CC1 | 564 s |
| CCOC(=O)CC(=O)CSc1nc2ccsc2c(=O)n1Cc1ccc(F)cc1 | 903 s |
| O=C(NCc1cccc(Br)c1)C1CCCN(c2ccc(=O)n(-c3cccc(F)c3)n2)C1 (stereo not given) | 899 s |
| CCC(C)NC(=O)CSc1cc(N2CCN(c3ccc(OC)cc3)CC2)ncn1 (stereo not given) | 775 s |
| O=c1cc(-c2ccccc2)nc2n1CCN2Cc1ccncc1 | 589 s |
| Cc1ccc(-c2cc3c(=O)n(Cc4noc(-c5ccccc5)n4)ccn3n2)c(C)c1 | 1160 s |
| CCCN(CCC)CCCNC(=O)C1CCCN(c2ncc(-c3ccccc3)cn2)C1 (stereo not given) | 719 s |
| COCCn1cc2c3c(cccc31)CN(C(=O)Nc1cc(Cl)ccc1OC)CC2 | 1070 s |
| COc1ccc(/C=C/c2nn3c(COc4ccc(OC)cc4)nnc3s2)cc1 | 973 s |
